Reference: PubChem BioAssay AID2060890 (Molecular Pharmacology Branch, DTP, NCI, 2025)
Each block holds one molecule with its values, some of them ahead of it.

Test system: LG0703-F948-PDC complex spheroid viability
Experiment: Anticancer human tumor LG0703-F948-PDC patient-derived lung adenocarcinoma cell line growth inhibition [RAS]
Conditions: for IC50: curve of first compound; for viability, T/C: stronger effect = lower value
Summary of the method: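 Multi-cell-type spheroids: tumor cells plus HUVEC endothelial cells and mesenchymal stem cells. RAS-pathway inhibitors were combined with targeted agents, each dosed in half-log steps down from clinical Cmax, or from 10 microM when Cmax was unknown.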

[1] = second compound 0.00316 µM, first compound 0.000949 µM
[2] = second compound 0.00316 µM, first compound 0.003 µM
[3] = second compound 0.00316 µM, first compound 0.00949 µM
[4] = second compound 0.00316 µM, first compound 0.03 µM
[5] = second compound 0.00316 µM, first compound 0.0949 µM
[6] = second compound 0.00316 µM, first compound 0.3 µM
[7] = second compound 0.01 µM, first compound 0.000949 µM
[8] = second compound 0.01 µM, first compound 0.003 µM
[9] = second compound 0.01 µM, first compound 0.00949 µM
[10] = second compound 0.01 µM, first compound 0.03 µM
[11] = second compound 0.01 µM, first compound 0.0949 µM
[12] = second compound 0.01 µM, first compound 0.3 µM
[13] = second compound 0.0316 µM, first compound 0.000949 µM
[14] = second compound 0.0316 µM, first compound 0.003 µM
[15] = second compound 0.0316 µM, first compound 0.00949 µM
[16] = second compound 0.0316 µM, first compound 0.03 µM
[17] = second compound 0.0316 µM, first compound 0.0949 µM
[18] = second compound 0.0316 µM, first compound 0.3 µM
[19] = second compound 0.1 µM, first compound 0.000949 µM
[20] = second compound 0.1 µM, first compound 0.003 µM
[21] = second compound 0.1 µM, first compound 0.00949 µM
[22] = second compound 0.1 µM, first compound 0.03 µM
[23] = second compound 0.1 µM, first compound 0.0949 µM
[24] = second compound 0.1 µM, first compound 0.3 µM
[25] = second compound 0.316 µM, first compound 0.000949 µM
[26] = second compound 0.316 µM, first compound 0.003 µM
[27] = second compound 0.316 µM, first compound 0.00949 µM
[28] = second compound 0.316 µM, first compound 0.03 µM
[29] = second compound 0.316 µM, first compound 0.0949 µM
[30] = second compound 0.316 µM, first compound 0.3 µM
[31] = second compound 1 µM, first compound 0.000949 µM
[32] = second compound 1 µM, first compound 0.003 µM
[33] = second compound 1 µM, first compound 0.00949 µM
[34] = second compound 1 µM, first compound 0.03 µM
[35] = second compound 1 µM, first compound 0.0949 µM
[36] = second compound 1 µM, first compound 0.3 µM
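Further: spheroids exposed to agents for 7 days.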
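Wherever viability, T/C is given: 100% = DMSO vehicle wells.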

IC50 (second compound 0.00316 µM): 0.0418 µM
IC50 (second compound 0.01 µM): 0.0513 µM
IC50 (second compound 0.0316 µM): 0.0376 µM
IC50 (second compound 0.1 µM): 0.0305 µM
IC50 (second compound 0.316 µM): 0.0444 µM
IC50 (second compound 1 µM): 0.0508 µM
Structure (SMILES): CCc1c2c(nc3ccc(O)cc13)-c1cc3c(c(=O)n1C2)COC(=O)[C@]3(O)CC + C=CC(=O)N1CCN(c2nc(OCC3CCCN3C)nc3c(F)c(-c4nc(N)cc(C)c4C(F)(F)F)c(Cl)cc23)C(C)C1
viability, T/C [1]: 102%
viability, T/C [2]: 99.9%
viability, T/C [3]: 77.8%
viability, T/C [4]: 54.5%
viability, T/C [5]: 38.3%
viability, T/C [6]: 22.9%
viability, T/C [7]: 105%
viability, T/C [8]: 87.5%
viability, T/C [9]: 80.7%
viability, T/C [10]: 61.3%
viability, T/C [11]: 36.4%
viability, T/C [12]: 20.7%
viability, T/C [13]: 102%
viability, T/C [14]: 106%
viability, T/C [15]: 92.1%
viability, T/C [16]: 53%
viability, T/C [17]: 34%
viability, T/C [18]: 21%
viability, T/C [19]: 97.8%
viability, T/C [20]: 103%
viability, T/C [21]: 63.4%
viability, T/C [22]: 53.1%
viability, T/C [23]: 35.8%
viability, T/C [24]: 21.2%
viability, T/C [25]: 104%
viability, T/C [26]: 103%
viability, T/C [27]: 83.6%
viability, T/C [28]: 58.8%
viability, T/C [29]: 34.4%
viability, T/C [30]: 24.3%
viability, T/C [31]: 106%
viability, T/C [32]: 98.8%
viability, T/C [33]: 91%
viability, T/C [34]: 57.3%
viability, T/C [35]: 39.8%
viability, T/C [36]: 20.1%

IC50 (second compound 0.000949 µM): 0.00767 µM
IC50 (second compound 0.003 µM): 0.00928 µM
IC50 (second compound 0.00949 µM): 0.00752 µM
IC50 (second compound 0.03 µM): 0.00669 µM
IC50 (second compound 0.0949 µM): < 0.00316 µM
IC50 (second compound 0.3 µM): < 0.00316 µM
Structure (SMILES): Nc1ccn(C2OC(CO)C(O)C2(F)F)c(=O)n1 (stereo unspecified) + CCn1c(-c2cccnc2C(C)OC)c2c3cc(ccc31)N1CCOC(CC(NC(=O)C(C(C)C)N(C)C(=O)C3(F)CCN(C(=O)C#CC(C)(C)N(C)C)CC3)C(=O)N3CCCC(N3)C(=O)OCC(C)(C)C2)C1
viability, T/C (second compound 0.000949 µM, first compound 0.00316 µM): 79.2%
viability, T/C (second compound 0.000949 µM, first compound 0.01 µM): 40.2%
viability, T/C (second compound 0.000949 µM, first compound 0.0316 µM): 36.9%
viability, T/C (second compound 0.000949 µM, first compound 0.1 µM): 32%
viability, T/C (second compound 0.000949 µM, first compound 0.316 µM): 32%
viability, T/C (second compound 0.000949 µM, first compound 1 µM): 30%
viability, T/C (second compound 0.003 µM, first compound 0.00316 µM): 76.2%
viability, T/C (second compound 0.003 µM, first compound 0.01 µM): 48.3%
viability, T/C (second compound 0.003 µM, first compound 0.0316 µM): 38.9%
viability, T/C (second compound 0.003 µM, first compound 0.1 µM): 29.8%
viability, T/C (second compound 0.003 µM, first compound 0.316 µM): 38.9%
viability, T/C (second compound 0.003 µM, first compound 1 µM): 31.3%
viability, T/C (second compound 0.00949 µM, first compound 0.00316 µM): 70.7%
viability, T/C (second compound 0.00949 µM, first compound 0.01 µM): 43.2%
viability, T/C (second compound 0.00949 µM, first compound 0.0316 µM): 38%
viability, T/C (second compound 0.00949 µM, first compound 0.1 µM): 36.9%
viability, T/C (second compound 0.00949 µM, first compound 0.316 µM): 43.9%
viability, T/C (second compound 0.00949 µM, first compound 1 µM): 30.9%
viability, T/C (second compound 0.03 µM, first compound 0.00316 µM): 66%
viability, T/C (second compound 0.03 µM, first compound 0.01 µM): 41.4%
viability, T/C (second compound 0.03 µM, first compound 0.0316 µM): 34%
viability, T/C (second compound 0.03 µM, first compound 0.1 µM): 30%
viability, T/C (second compound 0.03 µM, first compound 0.316 µM): 34.7%
viability, T/C (second compound 0.03 µM, first compound 1 µM): 28.9%
viability, T/C (second compound 0.0949 µM, first compound 0.00316 µM): 49.3%
viability, T/C (second compound 0.0949 µM, first compound 0.01 µM): 33.2%
viability, T/C (second compound 0.0949 µM, first compound 0.0316 µM): 26.7%
viability, T/C (second compound 0.0949 µM, first compound 0.1 µM): 30%
viability, T/C (second compound 0.0949 µM, first compound 0.316 µM): 27.8%
viability, T/C (second compound 0.0949 µM, first compound 1 µM): 22.2%
viability, T/C (second compound 0.3 µM, first compound 0.00316 µM): 31.7%
viability, T/C (second compound 0.3 µM, first compound 0.01 µM): 22.4%
viability, T/C (second compound 0.3 µM, first compound 0.0316 µM): 27.9%
viability, T/C (second compound 0.3 µM, first compound 0.1 µM): 27.2%
viability, T/C (second compound 0.3 µM, first compound 0.316 µM): 31.4%
viability, T/C (second compound 0.3 µM, first compound 1 µM): 19.4%

IC50 (second compound 0.00316 µM): > 0.3 µM
IC50 (second compound 0.01 µM): > 0.3 µM
IC50 (second compound 0.0316 µM): > 0.3 µM
IC50 (second compound 0.1 µM): > 0.3 µM
IC50 (second compound 0.316 µM): > 0.3 µM
IC50 (second compound 1 µM): > 0.3 µM
Structure (SMILES): CC1(C)CCC(Nc2ncc(C(F)(F)F)c(-c3c[nH]c4c(P(C)(C)=O)c(C#N)ccc34)n2)CN1 (stereo unspecified) + C=CC(=O)N1CCN(c2nc(OCC3CCCN3C)nc3c(F)c(-c4nc(N)cc(C)c4C(F)(F)F)c(Cl)cc23)C(C)C1
viability, T/C [1]: 84.1%
viability, T/C [2]: 76.8%
viability, T/C [3]: 63.5%
viability, T/C [4]: 62.8%
viability, T/C [5]: 57%
viability, T/C [6]: 57.3%
viability, T/C [7]: 88.5%
viability, T/C [8]: 78.8%
viability, T/C [9]: 67%
viability, T/C [10]: 52.9%
viability, T/C [11]: 58.7%
viability, T/C [12]: 62%
viability, T/C [13]: 94%
viability, T/C [14]: 71.4%
viability, T/C [15]: 68.8%
viability, T/C [16]: 53.2%
viability, T/C [17]: 54.7%
viability, T/C [18]: 62.1%
viability, T/C [19]: 82.3%
viability, T/C [20]: 77.1%
viability, T/C [21]: 55.9%
viability, T/C [22]: 52.9%
viability, T/C [23]: 58.4%
viability, T/C [24]: 65.3%
viability, T/C [25]: 98.4%
viability, T/C [26]: 78.5%
viability, T/C [27]: 62.2%
viability, T/C [28]: 62%
viability, T/C [29]: 58.8%
viability, T/C [30]: 67.3%
viability, T/C [31]: 84.8%
viability, T/C [32]: 77.8%
viability, T/C [33]: 64.5%
viability, T/C [34]: 57.4%
viability, T/C [35]: 66.1%
viability, T/C [36]: 59.9%
